# Source: patent US4292317A, “1,4-Dihydro-quinoline-3-carboxylic acid derivatives, process for their preparation and compositions containing them” (Laboratorie Roger Bellon, priority 1977, dated 1981)
# Where two headings read alike, the source gives them in different places.
# What was measured:
# Format in all cases: cell-based
# Salm. typhi 0901 = assay: microbe, parasite or virus in culture; conditions: Salmonella enterica, 18 h
# Protocol: (§1) After sterilisation at 120° C., the pH was 6.8.
# (§2) The minimum inhibitory concentrations (M.I.C.) were determined by dilution of the test compounds in this mixture, the concentration ranging from 0.05 to 100 μg/cm^3 in a geometric progression with a factor of 2.
# (§3) The inoculation of the dishes was carried out by means of a multiple inoculator with 10^-3 dilutions of 18 hour old broth cultures.
# (§4) The dishes were placed in an oven at 37° C. and the readings were taken afer an incubation time of 18 hours. The M.I.C. was taken as the lowest concentration which inhibited a culture.
# Pr. mirabilis Nig = assay: M.I.C. in vitro, nutrient agar dilution; conditions: Proteus mirabilis, 18 h, read-out: M.I.C.
# Protocol: as §1, §2, §3, §4
# S. enteritidis Danysz = assay: M.I.C. in vitro, nutrient agar dilution; conditions: Salmonella enterica, 18 h, read-out: M.I.C.
# Protocol: as §1, §2, §3, §4
# Staph. 9.144 = assay: M.I.C. in vitro, nutrient agar dilution; conditions: 18 h, read-out: M.I.C.
# Protocol: as §1, §2, §3, §4
# Sh. sonnei I.P.S. = assay: M.I.C. in vitro, nutrient agar dilution; conditions: Shigella sonnei, 18 h
# Protocol: as §1, §2, §3, §4
# Serratia = assay: M.I.C. in vitro, nutrient agar dilution; conditions: 18 h, read-out: M.I.C.
# Protocol: as §1, §2, §3, §4
# Esch. coli 95 I.S.M. = assay: M.I.C. in vitro, nutrient agar dilution; conditions: Escherichia coli, 18 h, read-out: M.I.C.
# Protocol: as §1, §2, §3, §4
# Pr. vulgaris 12-53 = assay: M.I.C. in vitro, nutrient agar dilution; conditions: Proteus vulgaris, 1253, 18 h, read-out: M.I.C.
# Protocol: as §1, §2, §3, §4
# Esch. coli 111 B4 = assay: M.I.C. in vitro, nutrient agar dilution; conditions: Escherichia coli, 18 h
# Protocol: as §1, §2, §3, §4
# Ps. aeruginosa A.22 = assay: M.I.C. in vitro, nutrient agar dilution; conditions: Pseudomonas aeruginosa, 18 h, read-out: M.I.C.
# Protocol: as §1, §2, §3, §4
# Staph. 209 P = assay: M.I.C. in vitro, nutrient agar dilution; conditions: 18 h, read-out: M.I.C.
# Protocol: as §1, §2, §3, §4
# Pr. morganii A.236 = assay: M.I.C. in vitro, nutrient agar dilution; conditions: Morganella morganii, 18 h, read-out: M.I.C.
# Protocol: as §1, §2, §3, §4
# Klebs. pneum. 10.031 = assay: M.I.C. in vitro, nutrient agar dilution; conditions: 18 h, read-out: M.I.C.
# Protocol: as §1, §2, §3, §4
# B. subtilis = assay: M.I.C. in vitro, nutrient agar dilution; conditions: Bacillus subtilis, 18 h, read-out: M.I.C.
# Protocol: as §1, §2, §3, §4
# Ps. aeruginosa 72.345 = assay: M.I.C. in vitro, nutrient agar dilution; conditions: Pseudomonas aeruginosa, 18 h, read-out: M.I.C.
# Protocol: as §1, §2, §3, §4
# S. oranienburg 1066 = assay: M.I.C. in vitro, nutrient agar dilution; conditions: Salmonella enterica, 18 h, read-out: M.I.C.
# Protocol: as §1, §2, §3, §4
# Providentia 0223 = assay: M.I.C. in vitro, nutrient agar dilution; conditions: 18 h, read-out: M.I.C.
# Protocol: as §1, §2, §3, §4
# Strepto A 561 = assay: M.I.C. in vitro, nutrient agar dilution; conditions: 18 h
# Protocol: as §1, §2, §3, §4
# Arizona 6.211 = assay: M.I.C. in vitro, nutrient agar dilution; conditions: 18 h, read-out: M.I.C.
# Protocol: as §1, §2, §3, §4
# Bord. bronchis. 4.617 = assay: M.I.C. in vitro, nutrient agar dilution; conditions: 18 h, read-out: M.I.C.
# Protocol: as §1, §2, §3, §4
# Esch. coli 54.127 O.M.S. = assay: M.I.C. in vitro, nutrient agar dilution; conditions: Escherichia coli, 18 h, read-out: M.I.C.
# Protocol: as §1, §2, §3, §4
# Strepto D.M. 19 = assay: M.I.C. in vitro, nutrient agar dilution; conditions: 18 h, read-out: M.I.C.
# Protocol: as §1, §2, §3, §4
# [1] = Table 2, Salm. typhi 0901 (Gram negative)
# [2] = Table 2, Pr. mirabilis Nig (Gram negative)
# [3] = Table 2, S. enteritidis Danysz (Gram negative)
# [4] = Table 2, Staph. 9.144 (Gram positive)
# [5] = Table 2, Berratia (Gram negative)
# [6] = Table 2, Esch. coli 95 I.S.M. (Gram negative)
# [7] = Table 2, Pr. vulgaris 12-53 (Gram negative)
# [8] = Table 2, Esch. coli 111 B4 (Gram negative)
# [9] = Table 2, Ps. aeruginosa A.22 (Gram negative)
# [10] = Table 2, Staph. 209 P (Gram positive)
# [11] = Table 2, Pr. morganii A.236 (Gram negative)
# [12] = Table 2, Klebs. pneum. 10.031 (Gram negative)
# [13] = Table 2, B. subtilis (Gram positive)
# [14] = Table 2, Ps. aeruginosa 72.345 (Gram negative)
# [15] = Table 2, S. oranienburg 1066 (Gram negative)
# [16] = Table 2, Providentia 0223 (Gram negative)
# [17] = Table 2, Strepto A 561 (Gram positive)
# [18] = Table 2, Arizona 6.211 (Gram negative)
# [19] = Table 2, Bord. bronchis. 4.617 (Gram negative)
# [20] = Table 2, Esch. coli 54.127 O.M.S. (Gram negative)
# [21] = Table 2, Strepto D.M. 19 (Gram positive)
smiles,measurement,setting,value
"CN1CCN(c2cc3c(cc2F)c(=O)c(C(=O)O)cn3C)CC1 [Example 31, 6-Fluoro-1-methyl-7-(4-methylpiperazinyl)-4-oxo-1,4-dihydro-quinoline-3-carboxylic acid]",MIC,"Salm. typhi 0901; Table III, Salm. typhi 0901",0.4 µg/mL
same,MIC,"Pr. mirabilis Nig; Table III, Pr. mirabilis Nig",0.4 µg/mL
same,MIC,"S. enteritidis Danysz; Table III, S. enteritidis Danysz",0.4 µg/mL
same,MIC,"Staph. 9.144; Table III, Staph. 9.144",0.4 µg/mL
same,MIC,"Sh. sonnei I.P.S.; Table III, Sh. sonnei I.P.S., read-out: M.I.C.",0.2 to 0.4 µg/mL
same,MIC,Serratia; Table III,0.2 µg/mL
same,MIC,"Esch. coli 95 I.S.M.; Table III, Esch. coli 95 I.S.M.",0.1 µg/mL
same,MIC,"Pr. vulgaris 12-53; Table III, Pr. vulgaris 12-53",0.2 µg/mL
same,MIC,"Esch. coli 111 B4; Table III, Esch. coli 111 B4",0.8 µg/mL
same,MIC,"Ps. aeruginosa A.22; Table III, Ps. aeruginosa A.22",1.6 µg/mL
same,MIC,"Staph. 209 P; Table III, Staph. 209 P",0.4 µg/mL
same,MIC,"Pr. morganii A.236; Table III, Pr. morganii A. 236",0.2 µg/mL
same,MIC,"Klebs. pneum. 10.031; Table III, Klebs. pneum. 10.031",0.8 µg/mL
same,MIC,"B. subtilis; Table III, B. Subtilis",0.8 µg/mL
same,MIC,"Ps. aeruginosa 72.345; Table III, Pd. aeruginosa 72.345",1.6 µg/mL
same,MIC,"S. oranienburg 1066; Table III, S. oranienburg 1066",6.2 to 12.5 µg/mL
same,MIC,"Providentia 0223; Table III, Providentia 0223",0.8 to 1.6 µg/mL
same,MIC,"Strepto A 561; Table III, Strepto A 561",12.5 µg/mL
same,MIC,"Arizona 6.211; Table III, Arizona 6.211",0.2 to 0.4 µg/mL
same,MIC,"Bord. bronchis. 4.617; Table III, Bord. bronchis. 4.617",6.25 µg/mL
same,MIC,"Esch. coli 54.127 O.M.S.; Table III, Esch. coli 54.127 O.M.S.",0.8 µg/mL
same,MIC,"Strepto D.M. 19; Table III, Strepto D.M. 19",3.1 to 6.2 µg/mL
"CCn1cc(C(=O)O)c(=O)c2cc(Cl)c(N3CCN(C)CC3)cc21 [Example 1, 6-Chloro-1-ethyl-7-(4-methylpiperazinyl)-4-oxo-1,4-dihydro-quinoline-3-carboxylic acid]",MIC,Salm. typhi 0901; [1],0.4 to 1.6 µg/mL
same,MIC,Pr. mirabilis Nig; [2],0.4 to 0.8 µg/mL
same,MIC,S. enteritidis Danysz; [3],0.4 to 1.6 µg/mL
same,MIC,Staph. 9.144; [4],0.4 to 1.6 µg/mL
same,MIC,Sh. sonnei I.P.S.,0.2 to 0.85 µg/mL
same,MIC,Serratia; [5],1.6 to 3.1 µg/mL
same,MIC,Esch. coli 95 I.S.M.; [6],0.4 to 0.8 µg/mL
same,MIC,Pr. vulgaris 12-53; [7],0.4 to 1.6 µg/mL
same,MIC,Esch. coli 111 B4; [8],0.2 to 0.4 µg/mL
same,MIC,Ps. aeruginosa A.22; [9],3.1 to 6.2 µg/mL
same,MIC,Staph. 209 P; [10],0.4 µg/mL
same,MIC,Pr. morganii A.236; [11],0.2 to 0.8 µg/mL
same,MIC,Klebs. pneum. 10.031; [12],0.2 µg/mL
same,MIC,B. subtilis; [13],0.2 to 0.4 µg/mL
same,MIC,Ps. aeruginosa 72.345; [14],3.1 to 6.2 µg/mL
same,MIC,S. oranienburg 1066; [15],12.5 to 25 µg/mL
same,MIC,Providentia 0223; [16],3.1 to 12.5 µg/mL
same,MIC,Strepto A 561; [17],12.5 to 50 µg/mL
same,MIC,Arizona 6.211; [18],0.2 to 0.8 µg/mL
same,MIC,Bord. bronchis. 4.617; [19],1.6 to 6.2 µg/mL
same,MIC,Esch. coli 54.127 O.M.S.; [20],0.2 to 0.4 µg/mL
same,MIC,Strepto D.M. 19; [21],1.6 to 3.1 µg/mL
"CCn1cc(C(=O)O)c(=O)c2ccc(N3CCN(CCO)CC3)cc21 [Example T4, reference compound]",MIC,Salm. typhi 0901; [1],25 µg/mL
same,MIC,Pr. mirabilis Nig; [2],50 µg/mL
same,MIC,S. enteritidis Danysz; [3],12.5 µg/mL
same,MIC,Staph. 9.144; [4],3.1 µg/mL
same,MIC,"Sh. sonnei I.P.S.; Table 2, Sh. sonnei I.P.S. (Gram negative), read-out: M.I.C.",6.2 µg/mL
same,MIC,Serratia; [5],> 100 µg/mL
same,MIC,Esch. coli 95 I.S.M.; [6],6.2 µg/mL
same,MIC,Pr. vulgaris 12-53; [7],25 µg/mL
same,MIC,Esch. coli 111 B4; [8],6.2 µg/mL
same,MIC,Ps. aeruginosa A.22; [9],100 µg/mL
same,MIC,Staph. 209 P; [10],6.2 µg/mL
same,MIC,Pr. morganii A.236; [11],3.1 µg/mL
same,MIC,Klebs. pneum. 10.031; [12],3.1 µg/mL
same,MIC,B. subtilis; [13],3.1 µg/mL
same,MIC,Ps. aeruginosa 72.345; [14],100 µg/mL
same,MIC,S. oranienburg 1066; [15],> 100 µg/mL
same,MIC,Providentia 0223; [16],> 100 µg/mL
same,MIC,Strepto A 561; [17],> 100 µg/mL
same,MIC,Arizona 6.211; [18],12.5 µg/mL
same,MIC,Bord. bronchis. 4.617; [19],100 µg/mL
same,MIC,Esch. coli 54.127 O.M.S.; [20],6.2 µg/mL
same,MIC,Strepto D.M. 19; [21],100 µg/mL
